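Cultured in 96-well plates, cells were exposed to test compound for 48 hours across five concentrations. At the GI50, growth is halved.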 Active and inactive are the calls of the source. Cut-off read from the data, not from the text of the source: active = GI50 up to about 1.1 µM and inactive = higher.

Consider 11 compounds from ChEMBL document CHEMBL1201862, “PubChem BioAssay data set” (2004).

Some test systems named below: SF-295; MDA-MB-435; SK-OV-3; HOP-62; OVCAR-3; NCI-H460; MCF7; NCI-H522; HCC 2998; K562; COLO 205; UO-31; MDA-N; SW-620; SN12C; MOLT-4; A549; M14; TK-10; LOX IMVI.
Experiment in all cases: NCI anticancer screen, dose series, 48 h

For the compound `C/C(=N\Nc1nc2ccccc2o1)c1cc(C)ncn1`, the GI50 was 0.0745 µM (active) in the assay with SF-295; 0.319 µM (active) with MDA-MB-435; 0.0675 µM (active) in the assay with SK-OV-3; 0.11 µM (active) in the assay with HOP-62; < 0.0223 µM (active) in the assay on OVCAR-3; 0.0455 µM (active) in the assay on NCI-H460. The GI50 with MCF7 is 0.0212 µM (active); with NCI-H522, < 0.01 µM (active); with HCC 2998, 11 µM (inactive); in the assay on K562, 0.0356 µM (active); with COLO 205 it was < 0.01 µM (active); in the assay with UO-31, 0.019 µM (active). For the same compound, the GI50 was 2.42 µM (inactive) with MDA-N; < 0.0201 µM (active) with SW-620; < 0.0205 µM (active) in the assay on SN12C; < 0.01 µM (active) with MOLT-4; 0.0957 µM (active) in the assay with A549; < 0.0206 µM (active) in the assay on M14.

As for `CC1(C)C2CCC1(C)C(OC(=O)/C=C/C(=O)OC1CC3CCC1(C)C3(C)C)C2` (centres undefined), the GI50 in the assay with SF-295 was > 100 µM (inactive); with MDA-MB-435 it was 67.3 µM (inactive); with TK-10 it was > 100 µM (inactive); with HOP-62, > 100 µM (inactive); in the assay on OVCAR-3, 48.8 µM (inactive); with NCI-H460, 67.9 µM (inactive). For the same compound, the GI50 in the assay with MCF7 was 19.3 µM (inactive); in the assay with NCI-H522, 41 µM (inactive); in the assay with HCC 2998, 64.4 µM (inactive); in the assay with K562, 31.9 µM (inactive); in the assay on COLO 205, 75.2 µM (inactive); with UO-31, > 100 µM (inactive). Moreover, the GI50 with MDA-N is 60.4 µM (inactive); with LOX IMVI, 21.7 µM (inactive); with SW-620, 38.1 µM (inactive); in the assay with SN12C, 82.2 µM (inactive); with MOLT-4, 16.9 µM (inactive); in the assay with A549 it was > 100 µM (inactive). Further, in the assay on M14, the GI50 was 76.9 µM (inactive).

On to `C/C=C\C(CC(=O)NCCC1CN(C(=O)OCc2ccccc2)c2ccccc21)CC(=O)OC` (centres undefined), for which the GI50 in the assay on SF-295, with MDA-MB-435, in the assay on SK-OV-3, with TK-10, with HOP-62 and in the assay on OVCAR-3 was > 100 µM (inactive) each time. Further, the GI50 in the assay with NCI-H460 was 86.5 µM (inactive); with MCF7 it was > 100 µM (inactive); with NCI-H522, > 100 µM (inactive); in the assay on HCC 2998, > 100 µM (inactive); in the assay on K562, > 100 µM (inactive); in the assay on COLO 205, 50.5 µM (inactive). For the same compound, the GI50 in the assay with UO-31, with MDA-N, in the assay on SW-620, in the assay on MOLT-4, with A549 and in the assay on M14 was > 100 µM (inactive) throughout.

As for `CC1=C(O)C(O)=C(C2=C(O)C(O)=C(C)C(=O)C2=O)C(=O)C1=O`, the GI50 in the assay on SF-295 is 31.3 µM (inactive); in the assay on MDA-MB-435, 37.8 µM (inactive); in the assay on SK-OV-3, 37.2 µM (inactive); with HOP-62, 44 µM (inactive); in the assay on OVCAR-3, 30.8 µM (inactive); in the assay with NCI-H460 it was 40.6 µM (inactive). For the same compound, the GI50 with MCF7 was 45.3 µM (inactive); in the assay on NCI-H522, 29.3 µM (inactive); with HCC 2998, 39.1 µM (inactive); in the assay with K562 it was 45.7 µM (inactive); in the assay on COLO 205, 40.7 µM (inactive); in the assay with UO-31, 39.1 µM (inactive). The GI50 in the assay on MDA-N was 40.9 µM (inactive); with LOX IMVI it was 30.6 µM (inactive); with SW-620 it was 68.9 µM (inactive); in the assay on SN12C, 45 µM (inactive); with MOLT-4 it was 98.2 µM (inactive); in the assay with M14 it was 38.5 µM (inactive).

For the compound `Cc1cc(-c2[nH]c(C(=O)O)cc2I)on1`, the GI50 was 33.7 µM (inactive) in the assay with SF-295; > 100 µM (inactive) in the assay on MDA-MB-435; 76 µM (inactive) in the assay on SK-OV-3; > 100 µM (inactive) in the assay on TK-10; 26.9 µM (inactive) in the assay with HOP-62; > 100 µM (inactive) in the assay with OVCAR-3. Besides, the GI50 in the assay with NCI-H460, in the assay on MCF7, in the assay on NCI-H522, with HCC 2998, in the assay on K562 and in the assay on COLO 205 was > 100 µM (inactive) throughout. The GI50 is 40.5 µM (inactive) in the assay on UO-31; > 100 µM (inactive) in the assay with MDA-N; > 100 µM (inactive) in the assay with SW-620; > 100 µM (inactive) in the assay with MOLT-4; 56.6 µM (inactive) in the assay on A549; 80 µM (inactive) with M14.

Consider `COC(=O)c1ccc(NCC2=CC(=O)C=CC2=O)cc1`, for which the GI50 in the assay on MDA-MB-435 is 11.3 µM (inactive); with SK-OV-3, 16.7 µM (inactive); in the assay with TK-10, 10.8 µM (inactive); with OVCAR-3 it was 1.79 µM (inactive); with MCF7, 14.2 µM (inactive); in the assay on NCI-H522, 1.7 µM (inactive). Moreover, the GI50 in the assay with HCC 2998 was 21.6 µM (inactive); in the assay with K562, 2.69 µM (inactive); in the assay on COLO 205 it was 2.69 µM (inactive); with UO-31, 7.08 µM (inactive); in the assay with MDA-N, 11.4 µM (inactive); in the assay with LOX IMVI it was 5 µM (inactive). In addition, the GI50 in the assay on SW-620 was 3.75 µM (inactive); in the assay with MOLT-4 it was 3.05 µM (inactive); with A549 it was 22.7 µM (inactive); in the assay with M14 it was 4.06 µM (inactive).

For `O=c1[nH]c(=O)n(COCCO)c2ccsc12`, the GI50 in the assay with SF-295, in the assay on MDA-MB-435, with TK-10, in the assay with HOP-62, in the assay with OVCAR-3 and with NCI-H460 was > 100 µM (inactive) each time. In addition, the GI50 in the assay with MCF7, in the assay with NCI-H522, with HCC 2998, in the assay with K562, in the assay with COLO 205 and in the assay with UO-31 was > 100 µM (inactive) in each case. Moreover, the GI50 in the assay with MDA-N, in the assay on LOX IMVI, in the assay on SW-620, with SN12C, in the assay with MOLT-4 and in the assay on A549 was > 100 µM (inactive) in each case. Further, in the assay on M14, the GI50 is > 100 µM (inactive).

Take `CC1C2CCC3C(O)C2(CC(O)C2(O)C1CC(O)C2(C)C)CC3(C)O` (centres undefined): the GI50 in the assay on SF-295, in the assay on MDA-MB-435, with SK-OV-3, with TK-10, in the assay with NCI-H460 and in the assay with MCF7 was > 100 µM (inactive) throughout. The GI50 in the assay with NCI-H522, in the assay on HCC 2998, with K562, with COLO 205, in the assay with UO-31 and in the assay with MDA-N was > 100 µM (inactive) throughout. For the same compound, the GI50 is > 100 µM (inactive) in the assay with LOX IMVI; > 100 µM (inactive) with SW-620; > 100 µM (inactive) in the assay with SN12C; > 10 µM (inactive) in the assay on MOLT-4; > 100 µM (inactive) with A549; > 100 µM (inactive) in the assay on M14.

For the compound `O=C(Cn1c2c(c3ccccc31)CCCC2)NC1CCCCC1`, the GI50 with SF-295 is 51.3 µM (inactive); with MDA-MB-435, > 100 µM (inactive); in the assay with SK-OV-3, 45.9 µM (inactive); with TK-10 it was > 100 µM (inactive); with HOP-62, 81.8 µM (inactive); with OVCAR-3 it was 96.4 µM (inactive). The GI50 in the assay with NCI-H460, in the assay on MCF7, with HCC 2998, with K562, in the assay on COLO 205 and with UO-31 was > 100 µM (inactive) in each case. The GI50 in the assay on MDA-N was > 100 µM (inactive); in the assay on LOX IMVI it was 68.5 µM (inactive); with SW-620 it was > 100 µM (inactive); with SN12C it was > 100 µM (inactive); with MOLT-4 it was > 10 µM (inactive); with A549, > 100 µM (inactive). In the assay with M14, the GI50 was > 100 µM (inactive).

On to `CSc1c(C(=O)Nc2ccc(C)cc2)c(N)n(N)c(=O)c1C#N`, for which the GI50 in the assay with MDA-MB-435, in the assay on SK-OV-3, in the assay with TK-10, with OVCAR-3, in the assay on NCI-H460 and with MCF7 was > 100 µM (inactive) throughout. The GI50 is > 100 µM (inactive) with NCI-H522; > 100 µM (inactive) in the assay on HCC 2998; > 100 µM (inactive) in the assay with K562; > 100 µM (inactive) with COLO 205; 60.1 µM (inactive) in the assay with UO-31; > 100 µM (inactive) with MDA-N. Also, the GI50 with LOX IMVI, in the assay with SW-620, in the assay with SN12C, in the assay on MOLT-4, in the assay with A549 and with M14 was > 100 µM (inactive) in each case.

For `COc1cc(Nc2nc3cc(C(F)(F)F)ccc3nc2C(=O)O)cc(OC)c1OC`, the GI50 in the assay on SF-295 was 27.2 µM (inactive); in the assay on MDA-MB-435 it was 45.6 µM (inactive); with TK-10, 51.3 µM (inactive); with HOP-62, 44.3 µM (inactive); in the assay with OVCAR-3, 29.7 µM (inactive); in the assay with NCI-H460 it was 58.1 µM (inactive). The GI50 in the assay with MCF7 was 66.5 µM (inactive); with NCI-H522, 30.9 µM (inactive); in the assay on HCC 2998, 61 µM (inactive); in the assay on COLO 205 it was 45.5 µM (inactive); with UO-31, 42.7 µM (inactive); in the assay on MDA-N, 33.3 µM (inactive). Moreover, the GI50 with LOX IMVI is 32.1 µM (inactive); with SW-620 it was 71.9 µM (inactive); with SN12C, 51.2 µM (inactive); in the assay with MOLT-4 it was 39.7 µM (inactive); in the assay with A549, 64.4 µM (inactive); with M14, 40.6 µM (inactive).
